Marks after values point to notes of the source that are not given here.
What was measured:
Plasma protein binding = format: in vitro ADME
PDE4C = biological target: T1, PDE4C (Homo sapiens, UniProt Q08493); assay: Recombinant PDE activity, scintillation proximity assay: PDE4C; format: biochemical; conditions: substrate [3H]cAMP, means from n independent experiments, read-out: IC50 PDE4C2
T1 construct: made in house; host or cells: SF9 insect cells (baculovirus, Bac-To-Bac, pFastbac)
Protocol: For the preparation of human recombinant PDEs of interest, the Bac-To-Bac baculoviral expression system from Invitrogen (Carlsbad, CA, United States) was used according to the instruction manual. […] The plasmids were transformed into DH10Bac bacteria, SF9 insect cells were transfected with the bacmid DNA, and the resulting baculoviruses were stored and used for further rounds of infections. For protein production, SF9 cells were infected until a cytopathic effect was visible (after about 72 h), the SF9 cells were harvested and broken up by 3 freeze/thaw cycles, and by shearing 10 times through a 0.1 mm cannula using a syringe. […] The Phosphodiesterase Scintillation Proximity Assays (TRKQ7090 for [^3H]cAMP, GE Healthcare Europe GmbH, Chalfont St Giles, United Kingdom, and TRKQ7100 for [^3H]cGMP, Perkin Elmer, Waltham, MA, United States) were performed essentially according to the instruction manual. […] Assay solutions containing recombinant baculoviral-expressed PDE (to give an activity of 5.000–20.000 cpm corresponding to 5–20% of total activity added), 50 mmol/L Tris/HCl pH 7.5, 8.3 mmol/L MgCl2, 1.7 mmol/L EGTA, and 10 µL radiolabeled substrate (0.05 µCi in H2O) were incubated for 1 h at 30°C (final volume 100 μL).

Col3A1 mRNA expression = assay: TGF-β-induced Col3A1 mRNA expression in IPF lung fibroblasts (Taqman); format: cell-based, human
Protocol: Fibroblasts from donors with IPF (IPF-LF) (Asterand, Detroit, MI, United States) were grown in fibroblast basal medium (CC-3131, Lonza Walkersville, Inc., Walkersville, MD, United States) supplemented with FGM-2 SingleQuot Kit Supplements and Growth Factors (CC-4126, Lonza). Cells were grown in a humidified incubator at 37°C and 5% CO2. All assays were performed at passage 7 or 8. For assay set-up, cells were seeded in fibroblast growth medium plus supplements in assay-relevant densities. For TGF-β-stimulated assays, cells were seeded at 4,500 cells per well in 96-well plates. Proliferation assays were performed in 96-well plates at an initial seeding cell density on day 0 of 2,000 cells per well. After 24-h, the cell culture medium was changed to starvation medium (fibroblast basal medium without supplements). […]
For determination of Col1A1, Col3A1, and FN mRNA expression, IPF-LF cells were stimulated with TGF-β (4 ng/mL) for 48 h. […] Quantitative real-time polymerase chain reactions were set up using the TaqMan™ Fast Advanced Master Mix (Applied Biosystems, Carlsbad, CA, United States) and species-specific gene expression assays: Col1A1 #Hs00164004_m1 FAM, Col3A1 #Hs0094309_m1 FAM, FN #Hs01549976_m1 FAM, 18S #4310893E. […] Fold-change of gene expression was calculated by the Viia7 software (regulation based upon housekeeper).

[1] = system: bleomycin-challenged mice; assay: Therapeutic bleomycin mouse model of lung fibrosis; format: in vivo
Protocol: Adult, test-naïve, male C57BL6/6J mice, aged 10–12 weeks from Charles River were used (weight 25–27 g). The model was performed essentially as described by [Ackermann et al. (2017)]. Briefly, bleomycin 1 mg/kg (Calbiochem, Darmstadt, Germany) was administered intratracheally in an application volume of 2 mL/kg body weight. Animals were weighed daily. […] BI 1015550 (at final doses of 2.5 and 12.5 mg/kg) was applied by oral gavage using a dose volume of 10 mL/kg twice daily (b.i.d.) from day 8 until day 13. On day 12, animals were anesthetized using 3–4% isoflurane, and lung density was assessed by micro-computed tomography (µCT) analysis with a Quantum FX µCT system (Perkin Elmer) with cardiac gating (without respiratory gating). Images were analyzed using MicroView 2.0 software (GE Healthcare). The Hounsfield unit (HU) corresponding to the peak of the HU-histogram for the segmented pixels was used as a measure of fibrosis. After µCT analysis, animals were allowed to awaken from anesthesia. On day 14, lung function [pressure-volume loops, FVC, and static lung compliance (Cstat)] was measured with a FlexiVent system (SCIREQ, Montreal, PQ, Canada). After the lung function measurement, animals were sacrificed by an overdose of Narcorene and lungs were lavaged with two-times 0.8 mL of PBS. BALF was used to determine differential cell counts (Sysmex XT-1800iVet) and the number of monocytes. Left lung lobes were fixed with 4% paraformaldehyde and inflated under 20 cm water pressure for 20 min. Samples were embedded in paraffin, sectioned (3 μm thickness), and stained for hematoxylin and eosin (HE) and Masson’s trichrome to assess general morphology and fibrotic change following standard histopathology operating protocols. Images were taken with an AxioCam MRm microscope camera using AxioVision software (Carl Zeiss Microscopy, LLC, White Plains, NY, United States). Lung sections stained with Masson’s trichrome were assessed for severity of pulmonary fibrosis using the Ashcroft score. The protocol used is therapeutic, i.e. treatment commenced at a time where lung fibrosis should have developed, in line with the recommendations of the American Thoracic Society panel on IPF models ([Jenkins et al., 2017]).

[2] = mice, 2.5 mg/kg b.i.d. oral day 8 to day 13, measured day 14
[3] = mice, 12.5 mg/kg b.i.d. oral day 8 to day 13, measured day 14, 12.5 mg/kg

T1 sequence (Q08493 107-712): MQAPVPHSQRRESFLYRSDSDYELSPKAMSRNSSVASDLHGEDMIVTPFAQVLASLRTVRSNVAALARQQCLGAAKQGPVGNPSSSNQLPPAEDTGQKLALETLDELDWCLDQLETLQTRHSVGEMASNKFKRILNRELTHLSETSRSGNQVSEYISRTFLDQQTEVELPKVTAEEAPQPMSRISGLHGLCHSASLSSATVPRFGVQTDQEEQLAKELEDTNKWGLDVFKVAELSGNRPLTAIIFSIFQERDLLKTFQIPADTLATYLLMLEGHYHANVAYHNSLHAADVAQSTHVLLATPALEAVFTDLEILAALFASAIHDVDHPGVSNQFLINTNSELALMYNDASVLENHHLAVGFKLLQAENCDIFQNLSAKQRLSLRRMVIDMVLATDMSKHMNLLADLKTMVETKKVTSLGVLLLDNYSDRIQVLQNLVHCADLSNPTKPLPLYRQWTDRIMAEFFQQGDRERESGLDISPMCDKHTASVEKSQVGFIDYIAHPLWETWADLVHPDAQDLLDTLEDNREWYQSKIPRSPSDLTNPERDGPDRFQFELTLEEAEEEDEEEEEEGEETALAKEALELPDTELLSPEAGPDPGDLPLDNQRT

`[O-][S+]1CCc2nc(N3CCC(c4ncc(Cl)cn4)CC3)nc(NC3(CO)CCC3)c21` (stereo not drawn) [BI 1015550] showed a Plasma protein binding (Plasma protein binding) of 77%, an IC50 (PDE4C) of 8.7 µM and an IC50 (Col3A1 mRNA expression; IPF-LF, TGF-β 4 ng/mL, 48 h, read-out: IC50 TGF-β-induced Col3 mRNA expression) of 0.213 µM. For the same molecule, the “Combination effect in inhibiting Col3 mRNA expression” value (Col3A1 mRNA expression; combination with nintedanib at 100 nmol/L) was “additive effects”, the “Effect on BALF protein and monocytes, airway compliance” value ([1]; bleomycin mice) was “no effects” and the “Effect on weight gain” value ([1]; bleomycin mice, data not shown) was “no significant effect”. For the same molecule, the “Fibrosis < score, % improvement compared to bleomycin control” value ([1]; mice, 2.5 mg/kg b.i.d. oral day 8 to day 13) was 2%, the “Cstat (mL/cm H2O), % improvement compared to bleomycin control” value [1, 2] was 21% and the “FVC (mL), % improvement compared to bleomycin control” value [1, 2] was 18%. For the same molecule, the “Ratio tissue density, % improvement compared to bleomycin control” value ([1]; mice, 2.5 mg/kg b.i.d. oral day 8 to day 13, µCT) was 4%, the “Fibrosis < score, % improvement compared to bleomycin control” value ([1]; mice, 12.5 mg/kg b.i.d. oral day 8 to day 13) was 11% and the “Cstat (mL/cm H2O), % improvement compared to bleomycin control” value [1, 3] was 40* %. For the same molecule, the “FVC (mL), % improvement compared to bleomycin control” value [1, 3] was 41%, the “Ratio tissue density, % improvement compared to bleomycin control” value ([1]; mice, 12.5 mg/kg b.i.d. oral day 8 to day 13, µCT) was 39% and the “Improvement in PV loops” value ([1]; mice, higher dose (12.5 mg/kg b.i.d.), p < 0.05) was 40%.

From article PMC9065678, “BI 1015550 is a PDE4B Inhibitor and a Clinical Drug Candidate for the Oral Treatment of Idiopathic Pulmonary Fibrosis” (Frontiers in Pharmacology, 2022)
